# Assay results: patent US8148367B2 (Takeda Pharmaceutical Company Limited, priority 2008, dated 2012)
# Target: T1, Recombinant human renin (Homo sapiens, UniProt P00797)
# T1 construct: isolate the active form (residues 67-406); made in house; host or cells: FreeStyle 293-F cells, transient expression of pcDNA3.1(+)/hREN
# T1 sequence (P00797 67-406): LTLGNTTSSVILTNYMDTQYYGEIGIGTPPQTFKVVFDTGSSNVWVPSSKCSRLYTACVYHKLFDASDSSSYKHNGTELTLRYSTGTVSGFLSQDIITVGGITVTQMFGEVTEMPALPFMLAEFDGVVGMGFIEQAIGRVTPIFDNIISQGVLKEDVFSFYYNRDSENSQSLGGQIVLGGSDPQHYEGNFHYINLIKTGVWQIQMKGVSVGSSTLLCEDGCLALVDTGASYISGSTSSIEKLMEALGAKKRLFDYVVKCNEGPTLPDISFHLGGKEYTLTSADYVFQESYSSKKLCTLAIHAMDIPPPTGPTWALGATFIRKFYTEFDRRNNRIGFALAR
# Assay: In vitro enzymatic activity assay of renin inhibitors (fluorescence, QXL520/HiLyteFluo488 peptide substrate)
# Format: biochemical
# Conditions: recombinant human renin 3 nM, 1 μM substrate, pre-incubated 10 minutes at 37° C., incubation one hour, pH 7.4, 5% DMSO; read-out: IC50 of Exemplified Compounds Against Renin
row,SMILES,IC50 [nM]
1,"COCCCOc1cccc(-n2c(-c3ccccc3)c(C(=O)N3CCNCC3)n(Cc3cccc(Oc4ccccc4)c3)c2=O)c1 [Example 13, 1-(3-(3-methoxypropoxy)phenyl)-3-(3-phenoxybenzyl)-5-phenyl-4-(piperazine-1-carbonyl)-1H-imidazol-2(3H)-one]",> 1000
2,"COc1cc(-c2cc(Cn3c(C(=O)N4CCNCC4)c(-c4ccccc4)n(C4CCCCC4)c3=O)cc(-c3ccnc(OC)c3)n2)ccn1 [Example 17E, 1-Cyclohexyl-3-((2,6-di(2-methoxyl-pyridine-4-yl)pyridin-4-yl)methyl)-5-phenyl-4-(piperazine-1-carbonyl)-1H-imidazol-2(3H)-one]",100 to 500
3,"COc1ccc(-c2cc(Cn3c(C(=O)N4CCNCC4)c(-c4ccccc4)n(C4CCCCC4)c3=O)ccn2)cn1 [Example 17F, 1-Cyclohexyl-3-((6′-methoxy-2,3′-bipyridin-4-yl)methyl)-5-phenyl-4-(piperazine-1-carbonyl)-1H-imidazol-2(3H)-one]",100 to 500
4,"COc1ccc(-c2cc(Cn3c(C(=O)N4CCNCC4)c(-c4ccccc4)n(C4CCCCC4)c3=O)cc(N(C)C)n2)cn1 [Example 17H, 1-cyclohexyl-3-((6-(dimethylamino)-6′-methoxy-2,3′-bipyridin-4-yl)methyl)-5-phenyl-4-(piperazine-1-carbonyl)-1H-imidazol-2(3H)-one]",100 to 500
5,"CCN(CC)c1cc(Cn2c(C(=O)N3CCNCC3)c(-c3ccccc3)n(C3CCCCC3)c2=O)cc(-c2ccc(OC)nc2)n1 [Example 17J, 1-cyclohexyl-3-((6-(diethylamino)-6′-methoxy-2,3′-bipyridin-4-yl)methyl)-5-phenyl-4-(piperazine-1-carbonyl)-1H-imidazol-2(3H)-one]",100 to 500
6,"O=C(c1[nH]c(=O)n(-c2ccccc2)c1-c1ccccc1)N1CCNCC1 [Example 18, 1,5-Diphenyl-4-(piperazine-1-carbonyl)-1H-imidazol-2(3H)-one]",> 1000
7,"O=C(c1[nH]c(=O)n(-c2ccccn2)c1-c1ccccc1)N1CCNCC1 [Example 19, 5-Phenyl-4-(piperazine-1-carbonyl)-1-(pyridin-2-yl)-1H-imidazol-2(3H)-one]",> 1000
8,"O=C(c1[nH]c(=O)n(-c2ccccc2)c1-c1ccccc1)N1CCNCC1CO (stereo not shown) [Example 20, 4-(2-(Hydroxymethyl)piperazine-1-carbonyl)-1,5-diphenyl-1H-imidazol-2(3H)-one]",> 1000
9,"O=C(c1[nH]c(=O)n(-c2ccccc2)c1-c1cccc(F)c1)N1CCNCC1 [Example 21, 5-(3-Fluorophenyl)-1-phenyl-4-(piperazine-1-carbonyl)-1H-imidazol-2(3H)-one]",> 1000
10,"O=C(c1[nH]c(=O)n(-c2cccc(N3CCOCC3)c2)c1-c1ccccc1)N1CCNCC1 [Example 22, 1-(3-Morpholinophenyl)-5-phenyl-4-(piperazine-1-carbonyl)-1H-imidazol-2(3H)-one]",500 to 1000
11,"CC(C)c1c(C(=O)N2CCNCC2)[nH]c(=O)n1-c1ccccc1 [Example 23, 5-Isopropyl-1-phenyl-4-(piperazine-1-carbonyl)-1H-imidazol-2(3H)-one]",> 1000
12,"O=C(c1[nH]c(=O)n(-c2ccccc2)c1C1CC1)N1CCNCC1 [Example 24, 5-Cyclopropyl-1-phenyl-4-(piperazine-1-carbonyl)-1H-imidazol-2(3H)-one]",> 1000
13,"O=C(c1[nH]c(=O)n(-c2ccccc2)c1CC1CC1)N1CCNCC1 [Example 25, 5-(Cyclopropylmethyl)-1-phenyl-4-(piperazine-1-carbonyl)-1H-imidazol-2(3H)-one]",> 1000
14,"O=C(c1[nH]c(=O)n(-c2ccccc2)c1-c1ccccc1Cl)N1CCNCC1 [Example 26, 5-(2-Chlorophenyl)-1-phenyl-4-(piperazine-1-carbonyl)-1H-imidazol-2(3H)-one]",> 1000
15,"COCCOc1cccc(Cn2c(C(=O)N3CCNCC3)c(-c3ccccc3)n(-c3ccccc3C)c2=O)c1 [Example 27, 1-(3-(2-methoxyethoxy)benzyl)-4-phenyl-5-(piperazine-1-carbonyl)-3-o-tolyl-1H-imidazol-2(3H)-one]",100 to 500
16,"O=C(c1[nH]c(=O)n(-c2ccccc2)c1-c1ccc(Cl)cc1)N1CCNCC1 [Example 28, 5-(4-Chlorophenyl)-1-phenyl-4-(piperazine-1-carbonyl)-1H-imidazol-2(3H)-one]",> 1000
17,"O=C(c1[nH]c(=O)n(C2CCCCC2)c1-c1ccccc1)N1CCNCC1 [Example 29, 1-Cyclohexyl-5-phenyl-4-(piperazine-1-carbonyl)-1H-imidazol-2(3H)-one]",500 to 1000
18,"COCCOc1ccccc1-n1c(-c2ccccc2)c(C(=O)N2CCNCC2)[nH]c1=O [Example 32, 1-(2-(2-Methoxyethoxy)phenyl)-5-phenyl-4-(piperazine-1-carbonyl)-1H-imidazol-2(3H)-one]",> 1000
19,"COCCCOc1ccccc1-n1c(-c2ccccc2)c(C(=O)N2CCNCC2)[nH]c1=O [Example 33, 1-(2-(3-Methoxypropoxy)phenyl)-5-phenyl-4-(piperazine-1-carbonyl)-1H-imidazol-2(3H)-one]",> 1000
20,"COCCOc1cccc(-n2c(-c3ccccc3)c(C(=O)N3CCNCC3)[nH]c2=O)c1 [Example 34, 1-(3-(2-Methoxyethoxy)phenyl)-5-phenyl-4-(piperazine-1-carbonyl)-1H-imidazol-2(3H)-one]",> 1000
21,"COCCCOc1cccc(-n2c(-c3ccccc3)c(C(=O)N3CCNCC3)[nH]c2=O)c1 [Example 35, 1-(3-(3-Methoxypropoxy)phenyl)-5-phenyl-4-(piperazine-1-carbonyl)-1H-imidazol-2(3H)-one]",500 to 1000
22,"COCCCOc1cccc(-n2c(-c3ccccc3)c(C(=O)N3CCNCC3)[nH]c2=O)n1 [Example 36, 1-(6-(3-Methoxypropoxy)pyridin-2-yl)-5-phenyl-4-(piperazine-1-carbonyl)-1H-imidazol-2(3H)-one]",> 1000
23,"C[C@@H]1CN(C(=O)c2[nH]c(=O)n(C3CCCCC3)c2-c2ccccc2)CCN1 [Example 37, (R)-1-Cyclohexyl-4-(3-methylpiperazine-1-carbonyl)-5-phenyl-1H-imidazol-2(3H)-one]",> 1000
24,"CC1CN(C(=O)c2[nH]c(=O)n(C3CCCCC3)c2-c2ccccc2)CCN1 (stereo not shown) [Example 38, 1-Cyclohexyl-4-(3-methylpiperazine-1-carbonyl)-5-phenyl-1H-imidazol-2(3H)-one]",> 1000
25,"C[C@H]1CN(C(=O)c2[nH]c(=O)n(C3CCCCC3)c2-c2ccccc2)CCN1 [Example 39, (S)-1-Cyclohexyl-4-(3-methylpiperazine-1-carbonyl)-5-phenyl-1H-imidazol-2(3H)-one]",> 1000
26,"CC1CN(C(=O)c2[nH]c(=O)n(C3CCCCC3)c2-c2ccccc2)CC(C)N1 (stereo not shown) [Example 40, 1-Cyclohexyl-4-(3,5-dimethylpiperazine-1-carbonyl)-5-phenyl-1H-imidazol-2(3H)-one]",> 1000
27,"CC1CN(C(=O)c2[nH]c(=O)n(C3CCCCC3)c2-c2ccccc2)C(C)CN1 (stereo not shown) [Example 41, 1-Cyclohexyl-4-(2,5-dimethylpiperazine-1-carbonyl)-5-phenyl-1H-imidazol-2(3H)-one]",> 1000
28,"COCCCOc1cccc(-n2c(-c3cccc(Cl)c3)c(C(=O)N3CCNCC3)[nH]c2=O)c1 [Example 42, 5-(3-Chlorophenyl)-1-(3-(3-methoxypropoxy)phenyl)-4-(piperazine-1-carbonyl)-1H-imidazol-2(3H)-one]",> 1000
